As usually defined, the melting point is the temperature of the solid-liquid transition. As for `O=C(O)c1ccc(C(=O)NOCCC23CC4CC(CC(C4)C2)C3)cc1`, the melting point was 197 to 200 °C.
With `O=C1NCC(=O)c2c(ncn2C2OC(COC(=O)c3ccccc3)C(OC(=O)c3ccccc3)C2OC(=O)c2ccccc2)N1` (configuration not stated) the figure was 239 °C; with `Cc1ccc(OC2CCN(C(=O)C(=O)Nc3ccc4nc(S)[nH]c4c3)CC2)cc1`, 311 to 314 °C; with `CCCCCCCCCCCCCCCCCCOc1cc(N)cc(OCCCP(=O)(OCC)OCC)c1`, 63 to 65 °C.
The compound `CC(=O)Nc1ccc(-n2c(N)nc3ccccc32)cc1` had a melting point of 246 to 248 °C.
Next, `COc1ccc(OC)c(C(=O)c2oc3ccccc3c2O)c1`: 158 °C; `CC(C)OC(=O)C=Cc1cc(-n2c(=O)cc(C(F)(F)F)n(C)c2=O)c(F)cc1Cl`: 137 to 139 °C; `Cc1cc(Cn2c(-c3ccccc3)nc(Cl)c2CO)ccc1OCc1ccccc1`: 184 to 186 °C.
Regarding `CC(O)(C(=O)Nc1ccc(Cl)cc1)c1ccc(F)cc1Cl` (configuration not stated), the melting point came to 167 °C.
With `O=C(COc1ccc2c(c1)OCO2)c1ccccc1` the figure was 123 to 126 °C.
Regarding `C=C1CC(COc2cc(=O)oc3ccccc23)(c2ccccc2)OC1=O` (configuration not stated), the melting point fell in the range of 212 to 214 °C.
`O=C(O)Cc1ccc(-c2nc3cccc(Cl)c3o2)cc1` came in with a melting point of 205 to 210 °C.
For the compound `COc1cc(O)c(C(=O)C=Cc2ccco2)c(OC)c1`, the melting point worked out at 98.4 °C.
Next, `CCOC(=O)Cc1ccc(-c2cn3ccsc3n2)cc1`: 117 to 119 °C; `O=C(Nc1ccc(O)c(O)c1)C12CC3CC(CC(C3)C1)C2`: 196 to 199 °C; `COC(=O)C(O)=CC(=O)c1cn(Cc2ccccc2)c(=O)n(Cc2ccccc2)c1=O`: 158 to 159 °C.
With `CN(Cc1ccccc1)C1CCN(C(=O)c2ccc(-n3cncn3)cc2)CC1` the figure was 168 to 169 °C.
Next, `CCOC(=O)N1C=CSC1C1=C(C)N=CC(OC)(OC)S1` (configuration not stated): 148 to 149 °C; `CC(C)(C)c1cc(CSCN(O)CSCc2cc(C(C)(C)C)c(O)c(C(C)(C)C)c2)cc(C(C)(C)C)c1O`: 98 to 101 °C; `COc1cc(Cl)c2nc(Cl)nc(O)c2c1OC`: 252 to 253 °C.
In the case of `COc1ccc(CCN(CCc2cccc(C(F)(F)F)c2)C(=O)CCCCC(N)=O)cc1OC`, the melting point was 125 to 126 °C.
Next, `CCCN1C(=O)N2CC(c3cccnc3)CN=C2c2[nH]c(C3CCCC3)nc21` (configuration not stated): 190 to 195 °C; `Cc1oc(-c2ccccc2)nc1COc1ccc(C=CC=O)cc1F`: 133 to 134 °C.
`CS(=O)(=O)Nc1ccc([N+](=O)[O-])cc1Br` returned a melting point of 148 to 151 °C.
Compound `Cc1cc(C)cc(COC[C@@H](NC(=O)OC(C)(C)C)c2ccccc2)c1` gave a melting point of 46 to 49 °C.
`CCCN(CCSc1nc(-c2ccccc2)c(-c2ccccc2)[nH]1)C(=O)Nc1ccc(F)cc1F` registered a melting point of 189 to 190 °C.
Compound `N#Cc1ccc(COc2ccc(-c3ccc(C4Cc5ccccc5C(c5c(O)c6ccccc6oc5=O)C4)cc3)cc2)cc1` (configuration not stated) returned a melting point of 127 °C.
Next, `Cc1ccc(CO)cc1NC(=O)c1cccc([N+](=O)[O-])c1`: 198 to 200 °C; `O=C1C2CCC(N1c1ccc(F)cc1)n1c(=O)n(-c3ccccc3)c(=O)n12` (configuration not stated): 167 to 168 °C.
On to `CCCCOC(=O)COc1ccc(C(=O)Nc2ccccc2Sc2ccc(Cl)cc2-c2nnn[nH]2)cc1`, for which the melting point fell in the range of 156 to 157 °C.
Compound `CCC(=O)c1[nH]c(=O)[nH]c1CC` had a melting point of 212 to 213 °C.
Next, `CCOC(=O)CNC(=O)C1(CC)CCCCCCC1`: 65 to 67 °C; `COC(=O)c1cc(OC)c(Cl)cc1N`: 63 to 64 °C.
On to `COc1ccc(CCc2c(Cc3ccccc3)sc3ccccc23)cc1`, for which the melting point was in the range of 68 to 70 °C.
Next, `CCOCc1cc2cccc(OC)c2oc1=O`: 131 to 133 °C.
With `Cc1ccc(C(=O)O)c(Oc2ccc3c(c2)c(C(=O)O)c(CC(=O)O)n3-c2ccc(OC(C)C)cc2)n1` the figure was 179 °C.
`COC(=NC(=O)N(C)C)NC(=O)NC(C)(C)C`: the melting point fell in the range of 96 to 98 °C.
Next, `O=C(CCn1cnc2c(=O)[nH]cnc21)NCCCN1CCOCC1`: 145 to 148 °C; `CNc1nc(-c2cccc(NC(=O)Nc3ccccc3)c2)c2cc(OC)c(OC)cc2n1`: 218 to 220 °C.
With `O=C(Nc1nccs1)C(CC1CCCC1)c1cccc(C(F)(F)F)c1` (configuration not stated) the figure was 134 to 136 °C; with `O=S1(=O)NC(C2CCCCC2)Nc2c(Br)cc(Br)cc21` (configuration not stated), 166 to 167 °C; with `COCCOc1cc(NC(=O)OC(C)(C)C)c(NC(=O)CC(=O)c2cccc(C#N)c2)cc1C#Cc1ccccc1`, 175 to 176 °C.
With `COc1cc(C(=O)N2CCNC(C(=O)N(C)C)C2)cc(OC)c1OC` (configuration not stated) the figure was 167 to 168 °C; with `Cc1nc2cccc(OCC(C)(C)NC(=O)CN3CCOCC3)c2c(N)c1C(=O)O`, 173 to 175 °C; with `CC(C)C(=O)N[C@@H](CSC(=O)C(C)(C)C)C(=O)NCCSC(=O)C(C)(C)C`, 106 to 108 °C.
Consider `CCCCc1nn(-c2cc(C(=O)OC)ccc2Cl)c(=O)n1Cc1ccc(-c2ccccc2S(=O)(=O)NC(C)(C)C)cc1`, for which the melting point was in the range of 65 to 67 °C.
On to `O=C1C(CCO)Oc2cc(F)ccc2N1Cc1ccccc1[N+](=O)[O-]` (configuration not stated), for which the melting point lay in the range of 123 to 124 °C.
For the compound `Oc1ccc2nc(-c3cccc4ccccc34)oc2c1`, the melting point is 185 to 187 °C.
With `Nc1cc(NC(=O)c2ccc(F)c(F)c2)ccc1F` the figure was 135 to 142 °C; with `CC1C(=O)NC2=NC=CCN21` (configuration not stated), 212 °C; with `COC(=O)c1coc2cc(Oc3cc(COCc4ccccc4)ncn3)ccc12`, 85 to 86 °C.
Next, `CCOC(=O)C1CCN(c2nnc(NCc3ccc(OC)c(Cl)c3)c3cc([N+](=O)[O-])ccc23)CC1`: 208 to 210 °C.
Compound `Fc1cc2c(-c3cccs3)c(CBr)cnc2c(F)c1F` yielded a melting point of 98 to 100 °C.
With `CS(=O)(=O)c1ccc(-c2nn(CCc3ccccc3)c(C(F)(F)F)c2-c2ccc(F)cc2)cc1` the figure was 132 to 135 °C; with `O=c1c2cccc3cccc(c32)c2nc3cc(C(F)(F)F)ccc3n12`, 212 to 214 °C.
`N#Cc1cnn2c1NCC=C2c1cccc(C(F)(F)F)c1` yielded a melting point of 175 to 177 °C.
With `Cc1c(N2C[C@@H](NC(=O)OC(C)(C)C)C3(CC3)C2)c(F)c(N)c2c(=O)c(C(=O)O)cn(C3CC3)c12` the figure was 218 to 219 °C.
With `CC(C)(C#N)c1cc(Cn2ccnc2)cc(C(N)=O)c1`, the melting point is 149 to 150 °C.
With `CSc1ccc(C2OC(=O)NC2CO)cc1` (configuration not stated) the figure was 130 to 131 °C; with `Cc1nc(Sc2ccccc2)sc1C(=O)O`, 187 to 188 °C.
With `Cc1cc(C)cc(N(CCCC(N)=O)Cc2ccc3nc(NCCCN4CCOCC4)n(Cc4cccc5cccnc45)c3c2)c1` the figure was 154 °C.
`O=C(O)c1sccc1SSc1ccsc1C(=O)O` showed a melting point of 256 to 257 °C.
Next, `O=S1(=O)N(CCCN2CC=C(c3ccccc3)CC2)c2cccc3c2N1CCC3`: 120 °C; `Cc1c(C#N)sc2nc(-c3ccccc3)nc(N3CCN(C)CC3)c12`: 223 to 225 °C.
Regarding `Cc1cc(-c2nc3cccnn3c2-c2ccnc(NC(N)=O)c2)ccc1F`, the melting point fell in the range of 254 to 255 °C.
Next, `N#Cc1cnc2cc(/C=C/c3ccncc3)sc2c1Nc1ccc(Oc2ccccc2)cc1`: 240 to 241 °C; `Cc1ccccc1C(N)=CC#N`: 111 to 113 °C; `O=C(Nc1ccc2c(c1)nc1n2CCC1)c1cc2nc(C(F)(F)F)ccc2n1Cc1ccncc1`: 130 to 131 °C.
Next, `O=c1[nH]c2cc(-c3ccncc3)c(C(F)(F)F)nc2[nH]1`: more than 300 °C; `NS(=O)(=O)c1cnc(-c2cn(-c3cc(-c4ccc(Cl)cc4)cc(C(F)(F)F)n3)cn2)s1`: 263 °C; `Cc1cc(C(C)(C)C)c(OP2OCCN2C(C)(C)C)c(C(C)(C)C)c1` (configuration not stated): 105 to 107 °C.
Turning to `CC(NC(=O)Nc1ccc(CN2C(=O)C3CCCC3N(C(=O)CN3C(=O)c4ccccc4C3=O)c3ccccc32)cc1)c1ccccc1` (configuration not stated), the melting point fell in the range of 156 to 160 °C.
Next, `CCOP(=O)(OCC)c1ccc(CNC(=O)C2=Cc3cc(C4CCCCC4)ccc3CC2)cc1`: 169 to 170 °C; `N#Cc1cnc(Nc2ccc(OCCn3nccn3)cc2)nc1-c1ccccc1`: 156 °C; `CC(=O)OC1CSC(Oc2ccc(-c3c(C)n[nH]c3C)nc2)C(OC(C)=O)C1OC(C)=O` (configuration not stated): 154 °C.
Consider `Nc1ccc(CCN2CCC(NC(=O)c3ccccc3)CC2)cc1`, for which the melting point was in the range of 193 to 195 °C.
The compound `O=c1c2cnc3ccc(C(F)(F)F)cc3c2on1-c1ccccc1` displayed a melting point of 175 °C.
With `CCN(CC)CCNC(=O)Cn1cc(-c2ccccc2)c(-c2ccccc2)n1` the figure was 80 to 83 °C; with `Cc1cccc2c1NC(C)c1nnnn1-2` (configuration not stated), 159 to 161 °C.
With `CCCCCCCCCCCCc1nnn(CC(=O)O)n1` the figure was 89 to 91 °C; with `Cc1c(-c2cnc(N(C)C)nc2)ssc1=S`, 135 °C.
`CCCC12C=CC=C(N3CCC(c4noc5cc(F)ccc45)CC3)C1(O)C(=O)NC2=O` (configuration not stated) displayed a melting point of 162 to 163 °C.
In the case of `CN(CCO)C(=O)Nc1ccc([N+](=O)[O-])c(C(F)(F)F)c1`, the melting point lay within 180 to 181 °C.
For the compound `O=C(Nc1ccccn1)Nc1nc(-c2ccccc2)cs1`, the melting point lay within 247 to 249 °C.
With `Cc1cccc(C)c1NC(=O)N=C1CCCN1C` the figure was 119 to 120 °C.
Take `CCNc1cc(Oc2cccc(C(F)(F)F)c2)nc(C(=O)NN=CC(F)(F)C(F)(F)F)c1`: the melting point fell in the range of 101 to 102 °C.
Next, `Cc1ccc(C(=O)NCN2CCN(c3ncccc3C#N)CC2)cc1`: 134 to 136 °C.

The record behind these values is a melting point compilation (Tetko et al.; mined from patent text by program, amines drawn as free bases though some values may be those of a salt).
